pIC50: −log10 of the molar value.
Experiments:
Plasmodium falciparum = assay: microbe, parasite or virus in culture
Description: In vitro growth inhibition against Plasmodium falciparum

Entamoeba histolytica = assay: In vitro growth inhibition against Entamoeba histolytica; type: functional, organism-based
in vitro = conditions: human, KB cells (nasopharyngeal carcinoma)
Description: Toxicity evaluated against human nasopharyngeal carcinoma KB cell line

[1] = Therapeutic index was expressed as ratio of LD50 for KB cell line to IC50 against Entamoeba histolytica; type: cell-based; conditions: human, KB cells; read-out: TI

Compound `Cc1ccnc(NC(P(=O)(O)O)P(=O)(O)O)c1` has a pIC50 (Plasmodium falciparum) of less than 3.70 and a pIC50 (Entamoeba histolytica) of less than 3.70.

In the case of `CCCCCCCCCCCCCCCCCC(O)(P(=O)(O)O)P(=O)(O)O`, the pIC50 (Plasmodium falciparum) was less than 3.70, the pIC50 (Entamoeba histolytica) was less than 3.70 and the CC50 (in vitro) was less than 0.65 µM.

With `O=P(O)(O)C(Nc1c(F)c(F)c(F)c(F)c1F)P(=O)(O)O` the pIC50 (Plasmodium falciparum) was less than 3.70, the pIC50 (Entamoeba histolytica) was less than 3.70 and the CC50 (in vitro) was greater than 779 µM.

`O=P(O)(O)C(O)(Cc1ccncc1)P(=O)(O)O` gave a pIC50 (Entamoeba histolytica) of less than 3.70 and a CC50 (in vitro) of 171 µM.

For `O=P(O)(O)C(Nc1ccc2c(c1)CCC2)P(=O)(O)O`, the pIC50 (Plasmodium falciparum) was less than 3.70, the pIC50 (Entamoeba histolytica) was less than 3.70 and the CC50 (in vitro) was greater than 976 µM.

For `Cc1cccc(NC(P(=O)(O)O)P(=O)(O)O)n1`, the pIC50 (Plasmodium falciparum) was less than 3.70, the pIC50 (Entamoeba histolytica) was 4.19 and the CC50 (in vitro) was 18.6 µM.

`CCC(C)CNC(P(=O)(O)O)P(=O)(O)O` (stereo unspecified) gave a pIC50 (Plasmodium falciparum) of less than 3.70, a pIC50 (Entamoeba histolytica) of 3.87 and a selectivity ratio [1] of 2.92. The CC50 (in vitro) was 394 µM.

Compound `O=P(O)(O)C(N1CCc2ccccc2C1)P(=O)(O)O` has a pIC50 (Entamoeba histolytica) of 4.15, a selectivity ratio [1] greater than 13 and a CC50 (in vitro) greater than 922 µM.

With `O=P(O)(O)C(Nc1ccc(Cl)nc1)P(=O)(O)O` the pIC50 (Plasmodium falciparum) was less than 3.70, the pIC50 (Entamoeba histolytica) was 4.66 and the selectivity ratio [1] was greater than 45.7. It also gave a CC50 (in vitro) greater than 992 µM.

In the case of `O=P(O)(O)C(N1CCC(O)CC1)P(=O)(O)O`, the pIC50 (Plasmodium falciparum) was less than 3.70, the pIC50 (Entamoeba histolytica) was less than 3.70 and the CC50 (in vitro) was greater than 1010 µM.

Compound `O=P(O)(O)C(Nc1cc(Cl)cc(Cl)c1)P(=O)(O)O` [(3,5-DICHLOROPHENYLAMINO)METHYLENEDIPHOSPHONIC ACID] has a pIC50 (Plasmodium falciparum) of less than 3.70, a pIC50 (Entamoeba histolytica) of less than 3.70 and a CC50 (in vitro) of 314 µM.

For `O=P(O)(O)C(NCCc1ccc(O)cc1)P(=O)(O)O` [(4-HYDROXYPHENETHYLAMINO)METHYLENEDIPHOSPHONIC ACID], the pIC50 (Plasmodium falciparum) was less than 3.70, the pIC50 (Entamoeba histolytica) was less than 3.70 and the CC50 (in vitro) was 99.8 µM.

Work on `CCCCN(CC)C(P(=O)(O)O)P(=O)(O)O` [(BUTYL(ETHYL)AMINO)METHYLENEDIPHOSPHONIC ACID] yielded a pIC50 (Plasmodium falciparum) of less than 3.70, a pIC50 (Entamoeba histolytica) of 4.33 and a selectivity ratio [1] greater than 22.3. It also gave a CC50 (in vitro) greater than 1060 µM.

For `CCCCNC(P(=O)(O)O)P(=O)(O)O` [(BUTYLAMINO)METHYLENEDIPHOSPHONIC ACID], the pIC50 (Plasmodium falciparum) was less than 3.70, the pIC50 (Entamoeba histolytica) was less than 3.70 and the CC50 (in vitro) was 212 µM.

Compound `O=P(O)(O)C(NC1CCC1)P(=O)(O)O` [(CYCLOBUTYLAMINO)METHYLENEDIPHOSPHONIC ACID] has a pIC50 (Plasmodium falciparum) of less than 3.70, a pIC50 (Entamoeba histolytica) of less than 3.70 and a CC50 (in vitro) of 260 µM.

`O=P(O)(O)C(NC1CCCCC1)P(=O)(O)O` [(CYCLOHEXYLAMINO)METHYLENEDIPHOSPHONIC ACID] showed a pIC50 (Plasmodium falciparum) of less than 3.70.

`O=P(O)(O)C(NC1CCCCCCC1)P(=O)(O)O` [(CYCLOOCTYLAMINO)METHYLENEDIPHOSPHONIC ACID] gave a pIC50 (Plasmodium falciparum) of less than 3.70, a pIC50 (Entamoeba histolytica) of 4.81 and a selectivity ratio [1] of 22.9. For the same compound, the CC50 (in vitro) was 354 µM.

Compound `O=P(O)(O)C(NC1CCCC1)P(=O)(O)O` [(CYCLOPENTYLAMINO)METHYLENEDIPHOSPHONIC ACID] has a pIC50 (Plasmodium falciparum) of less than 3.70, a pIC50 (Entamoeba histolytica) of 4.44 and a selectivity ratio [1] of 17.5. It also gave a CC50 (in vitro) of 629 µM.

Compound `O=P(O)(O)C(NC1CC1)P(=O)(O)O` [(CYCLOPROPYLAMINO)METHYLENEDIPHOSPHONIC ACID] has a pIC50 (Plasmodium falciparum) of less than 3.70, a pIC50 (Entamoeba histolytica) of 3.95 and a selectivity ratio [1] of 2.18. For the same compound, the CC50 (in vitro) was 246 µM.

Work on `O=P(O)(O)C(N(C1CCCCC1)C1CCCCC1)P(=O)(O)O` [(DICYCLOHEXYLAMINO)METHYLENEDIPHOSPHONIC ACID] yielded a pIC50 (Plasmodium falciparum) of less than 3.70, a pIC50 (Entamoeba histolytica) of less than 3.70 and a CC50 (in vitro) greater than 844 µM.

Compound `CC(C)N(C(C)C)C(P(=O)(O)O)P(=O)(O)O` [(DIISOPROPYLAMINO)METHYLENEDIPHOSPHONIC ACID] has a pIC50 (Plasmodium falciparum) of less than 3.70, a pIC50 (Entamoeba histolytica) of 3.71 and a selectivity ratio [1] of 4.39. It also gave a CC50 (in vitro) of 852 µM.

`CCCN(CCC)C(P(=O)(O)O)P(=O)(O)O` [(DIPROPYLAMINO)METHYLENEDIPHOSPHONIC ACID] showed a pIC50 (Plasmodium falciparum) of less than 3.70, a pIC50 (Entamoeba histolytica) of less than 3.70 and a CC50 (in vitro) of 322 µM.

`CC(C)CNC(P(=O)(O)O)P(=O)(O)O` [(ISOBUTYLAMINO)METHYLENEDIPHOSPHONIC ACID] showed a pIC50 (Plasmodium falciparum) of less than 3.70, a pIC50 (Entamoeba histolytica) of less than 3.70 and a CC50 (in vitro) of 50.5 µM.

`CCCNC(P(=O)(O)O)P(=O)(O)O` [(PROPYLAMINO)METHYLENEDIPHOSPHONIC ACID] showed a pIC50 (Plasmodium falciparum) of less than 3.70, a pIC50 (Entamoeba histolytica) of less than 3.70 and a CC50 (in vitro) of 499 µM.

`NCCCC(O)(P(=O)(O)O)P(=O)(O)O` [ALENDRONIC ACID] gave a pIC50 (Entamoeba histolytica) of less than 3.70.

Compound `O=P(O)(O)C(O)(C1CCC1)P(=O)(O)O` [CYCLOBUTYL(HYDROXY)METHYLENEDIPHOSPHONIC ACID] has a pIC50 (Plasmodium falciparum) of less than 3.70, a pIC50 (Entamoeba histolytica) of less than 3.70 and a CC50 (in vitro) greater than 1220 µM.

`O=P(O)(O)C(O)(C1CCCCC1)P(=O)(O)O` [CYCLOHEXYL(HYDROXY)METHYLENEDIPHOSPHONIC ACID] showed a pIC50 (Plasmodium falciparum) of less than 3.70, a pIC50 (Entamoeba histolytica) of less than 3.70 and a CC50 (in vitro) of 1090 µM.

Compound `O=P(O)(O)C(O)(C1CC1)P(=O)(O)O` [CYCLOPROPYL(HYDROXY)METHYLENEDIPHOSPHONIC ACID] has a pIC50 (Plasmodium falciparum) of less than 3.70, a pIC50 (Entamoeba histolytica) of less than 3.70 and a CC50 (in vitro) greater than 1240 µM.

Work on `O=P(O)(O)C(NC1CCCCCC1)P(=O)(O)O` [INCADRONIC ACID] yielded a pIC50 (Plasmodium falciparum) of less than 3.70, a pIC50 (Entamoeba histolytica) of less than 3.70 and a CC50 (in vitro) of 166 µM.

Compound `Cc1ncc([N+](=O)[O-])n1CCO` [METRONIDAZOLE] has a pIC50 (Entamoeba histolytica) of 5.49.

Compound `O=P(O)(O)C(N1CCCCCC1)P(=O)(O)O` [N-(HEXAMETHYLENEIMINO)METHYLENEBISPHOSPHONIC ACID] has a pIC50 (Plasmodium falciparum) of less than 3.70, a pIC50 (Entamoeba histolytica) of less than 3.70 and a CC50 (in vitro) greater than 1100 µM.

With `NCCCCCC(O)(P(=O)(O)O)P(=O)(O)O` [NERIDRONIC ACID] the pIC50 (Entamoeba histolytica) was less than 3.70.

`CN(C)CCC(O)(P(=O)(O)O)P(=O)(O)O` [OLPADRONIC ACID] showed a pIC50 (Entamoeba histolytica) of less than 3.70 and a CC50 (in vitro) greater than 1050 µM.

For `O=P(O)(O)C(N1CCSCC1)P(=O)(O)O` [THIOMORPHOLINOMETHYLENEDIPHOSPHONIC ACID], the pIC50 (Plasmodium falciparum) was less than 3.70, the pIC50 (Entamoeba histolytica) was less than 3.70 and the CC50 (in vitro) was greater than 1120 µM.

Work on `O=P(O)(O)C(O)(Cn1ccnc1)P(=O)(O)O` [ZOLEDRONIC ACID] yielded a pIC50 (Plasmodium falciparum) of 3.78, a pIC50 (Entamoeba histolytica) of 4.92 and a CC50 (in vitro) of 63.7 µM.
